Several values for one entry are separate records, joined by “and”; a condition that tells them apart may be missing. Equal values may be shown once.
Tests used:
Type in all cases: in vivo, human
[1] = Reported lithium blood levels during prophylaxis therapy; conditions: study patients with good adherence to lithium prophylaxis therapy
Source text: To assess response to long-term lithium prophylaxis treatment in BPI disorder, we prepared a life chart with graphic depiction of lifetime clinical course for each of the BPI patients recruited before June 2012 (N=1761). This life chart included all manic, hypomanic, and depressive episodes with date of onset (year and month), duration, and severity (including the extent of functional disability, hospitalization, and the presence of psychotic features), all doses of and duration of treatment with psychotropics and mood stabilizers known have been prescribed, drug adherence recorded in medical chart for all visits at outpatient clinics, all recorded blood levels of mood stabilizers, and any adverse drug reactions. We depicted this information graphically, based on integrated information gathered from direct interview with patients and their family members, interviews with in-charge psychiatrists, and a thorough medical chart review. Based on this life chart, we determined whether individual patients had good drug adherence.
(§1) For patients in the second test of replication, we carried out regular follow-up evaluations (usually monthly and at least once every 3 months), including assay of lithium to assess drug adherence, and a SCAN interview to assess clinical condition, at outpatient clinics for at least 2 years.

[2] = system: bipolar I (BPI) disorder patients; assay: Follow-up study (second test of replication) of 24 patients on lithium monotherapy, Alda Scale; set-up: key to A − B (total score of Alda Scale): Alda total = A score minus sum of B1-B5 scores (each 0-2); conditions: for A − B (total score of Alda Scale): individual patients, follow-up 2-5 yrs
Source text: In a second test of replication, we genotyped an independent series of 24 patients who had received lithium monotherapy for at least 2 years, through May 2012. We based their inclusion on a life chart (see Phenotype Definition and Assessment below) constructed for all patients in the 1647-patient sample. Each of these 24 patients had good drug adherence to mood stabilizer(s) other than lithium prior to their commencement of lithium monotherapy but with unsatisfactory response.
(§2) The phenotype of lithium response was assessed based on the life chart, using the Retrospective Criteria of Long-Term Treatment Response in Research Subjects with Bipolar Disorder developed by Martin Alda and Colleagues (Alda Scale). The Alda scale has two criteria. Criterion A measures the extent of clinical improvement in illness activity and takes into account the frequency, duration, and severity of episodes during periods of lithium treatment considered adequate in duration and dosage, compared with the frequency, duration, and severity of episodes during periods off the lithium treatment, on a scale from 0 (no change, or exacerbation of disease severity) to 10 (complete remission). Criterion B (B1-B5, each rated as 0, 1 or 2 points) is used to establish whether there is a causal relationship between clinical improvement and the treatment. B1 and B2 indicate the recurrence risk off the lithium treatment [number (B1) and frequency (B2) of episodes]. B3 is a measure of the length of lithium treatment. B4 indicates compliance with lithium. B5 is a measure of concomitant psychotropic medication during periods of stability. The total score is obtained by subtracting the sum of the B scores from the A score.
as §1

[3] = system: bipolar I (BPI) disorder patients; assay: Response to long-term lithium prophylaxis treatment, Alda Scale (retrospective, life chart; GWAS and replication groups)
Source text: We carried out a “discovery” GWAS, and two tests of replication. […] We genotyped each of the 1647 patients by array (see below).
To assess response to long-term lithium prophylaxis treatment in BPI disorder, we prepared a life chart with graphic depiction of lifetime clinical course for each of the BPI patients recruited before June 2012 (N=1761). […] We depicted this information graphically, based on integrated information gathered from direct interview with patients and their family members, interviews with in-charge psychiatrists, and a thorough medical chart review.
as §2, with “Criterion A measures the extent of clinical improvement in illness activity and takes into account the frequency, duration, and severity of episodes during periods of lithium treatment considered adequate in duration and dosage, compared with the frequency, duration, and severity of episodes during periods off the lithium treatment, on a scale from 0 (no change, or exacerbation of disease severity) to 10 (complete remission).” left out
In investigating a causal relationship between lithium treatment and clinical improvement of individual patients, it is important to ensure (i) comparability in clinical course between on-lithium and off-lithium periods (number, frequency and severity of episodes); (ii) satisfactory drug compliance, and (iii) the minimization of influence from additional medications (hypnotics, antidepressants, antipsychotics, and other mood stabilizers). We determined inclusion criteria accordingly, to minimize the misclassification of responders and non-responders.
See, e.g., Grof et al., J Clin Psychiatry 2002; 63:942-7; and Squassina et al, Pharmacogenomics 2011; 12:1559-69.

[4] = 394 bipolar I patients under lithium prophylaxis, B5 = 2 (prolonged antidepressant and/or antipsychotic and/or mood stabilizer)

[Li] [lithium]
lithium blood levels [1]: ≥ 0.5 mM
total Alda score, range ([2]; carriers of the response alleles (N=16), good response): 8-10
A − B (total score of Alda Scale) ([2]; rs17026688 genotype CC): 3 (3×) and 2 (2×) and 0 (3×)
A − B (total score of Alda Scale) ([2]; rs17026688 genotype CT): 10 (5×) and 9 (6×) and 8
A − B (total score of Alda Scale) ([2]; rs17026688 genotype TT): 9
total Alda score, range ([2]; non-carriers (N=8), poor response): 0-3
Good response to treatment (A − B ≧ 6) ([3]; 394 bipolar I patients under lithium prophylaxis, B5 = 1 (low dose antidepressants and/or antipsychotics and/or prolonged sleep medication)): 124 (50.4) N(%)
Good response to treatment (A − B ≧ 6) [3, 4]: 5 (5.0) N(%)
Poor response to treatment (A − B < 6) [3, 4]: 96 (95.0) N(%)
Good response to treatment (A − B ≧ 6) ([3]; 394 bipolar I patients under lithium prophylaxis, additional medication B5 = 0 (none except infrequent sleep medication)): 30 (63.8) N(%)
Poor responders to treatment at cutoff 5/6 ([3]; study subjects with a B5 score of 2): 95.0%

Reference: patent publication US9797015B2, “Genetic variants associated with lithium response in bipolar disorder” (Academia Sinica, priority 2013, dated 2017)
